Strand notation (5' to 3'): a small letter for the sugar, then the base; units joined by * are phosphorothioate-linked, units joined directly phosphodiester-linked; [ ] holds rarer units or linkages, { } end groups; capitals alone tell only the bases. e = 2'-O-(2-methoxyethyl) (MOE); l = locked nucleic acid (LNA); k = constrained ethyl (cEt); [5mC] = 5-methylcytosine; d = 2'-deoxy (DNA)
Tested on: miR-21
Assay: miR-21 luciferase sensor assay in Hela cells
Format: cell-based
Conditions: for inhibition of miR-21 in the luciferase assay (in words) / luciferase value normalized to beta-galactosidase activity: Hela cells
Protocol: The compounds were assessed for miR-21 inhibitory activity in a luciferase assay. A microRNA luciferase sensor construct was engineered using pGL3-MCS2 (Promega). The construct was introduced into Hela cells to test the ability of anti-miR compounds to inhibit activity of miR-21. In this assay, miR-21 present in the Hela cells binds to its cognate site(s) in the luciferase sensor construct, and suppresses luciferase expression. When the appropriate anti-miR is introduced into the cells, it binds to miR-21 and relieves suppression of luciferase expression. Thus, in this assay anti-miRs that are effective inhibitors of miR-21 expression will cause an increase in luciferase expression.
Day 1: Hela cells (ATCC), stably transfected with a luciferase construct engineered to contain a sequence complementary of miR-21, were seeded in T-170 flasks (BD Falcon) at 3.5*10^6 cells/flask. Hela cells were grown in Dulbecco's Modified Eagle Medium with High Glucose (Invitrogen).
Day 2: Each flask of Hela cells was transfected with 0.5 ug of a phRL sensor plasmid (Promega) expressing Renilla to be used in normalization. Hela cells were transfected using 20 ul Lipofectamine 2000/flask (Invitrogen). After 4 hours of transfection, cells were washed with PBS and trypsinized. Hela cells were plated at 40 k/well in 24 well plates (BD Falcon) and left overnight.
Day 3: Hela cells were transfected with anti-miRs using Lipofectin (Invitrogen) at 2.5 ul Lipofectin/100 nM ASO/ml Opti-MEM I Reduced Serum Medium (Invitrogen) for 4 hours. After ASO transfection, Hela cells were refed with Dulbecco's Modified Eagle Medium with High Glucose (Invitrogen).
Day 4: Hela cells are passively lysed and luciferase activity measured using the Dual-Luciferase Reporter Assay System (Promega).
The luciferase assay was performed to test the ability of anti-miRs with the nucleoside patterns described herein to inhibit the activity of miR-21. Results were compared to a ‘mock’ treatment, in which cells received no anti-miR treatment. The experiment was repeated and results of two experimental replicates are shown in the following Table B, as the luciferase value normalized to beta-galactosidase activity.
The luciferase assay was performed as described herein to test the ability of anti-miRs in Table F to inhibit the activity of miR-21. Results were compared to a ‘mock’ treatment, in which cells received no anti-miR treatment. The experiment was repeated and results of two experimental replicates are shown in the following Table D, as fold change in luciferase value relative to the mock treatment.

[1] = concentration of anti-miR compound 0.2 (unit not given)
[2] = concentration of anti-miR compound 0.6 (unit not given)
[3] = concentration of anti-miR compound 1.9 (unit not given)
[4] = concentration of anti-miR compound 5.6 (unit not given)
[5] = concentration of anti-miR compound 16.7 (unit not given)
[6] = concentration of anti-miR compound 50.0 (unit not given)
[7] = 4 nM oligonucleotide, mock transfection 50
[8] = 20 nM oligonucleotide, mock transfection 47
[9] = 100 nM oligonucleotide, mock transfection 40
[10] = 500 nM oligonucleotide, mock transfection 39
[11] = .16 nM oligonucleotide, mock transfection 45
[12] = .8 nM oligonucleotide, mock transfection 33

| Substance | fold change in luciferase value relative to the mock treatment [1] | fold change in luciferase value relative to the mock treatment [2] | fold change in luciferase value relative to the mock treatment [3] | fold change in luciferase value relative to the mock treatment [4] | fold change in luciferase value relative to the mock treatment [5] | fold change in luciferase value relative to the mock treatment [6] | inhibition of miR-21 in the luciferase assay (in words) | luciferase value normalized to beta-galactosidase activity [7] | luciferase value normalized to beta-galactosidase activity [8] | luciferase value normalized to beta-galactosidase activity [9] | luciferase value normalized to beta-galactosidase activity [10] | luciferase value normalized to beta-galactosidase activity [11] | luciferase value normalized to beta-galactosidase activity [12] |
| --- | --- | --- | --- | --- | --- | --- | --- | --- | --- | --- | --- | --- | --- |
| AE^MeCLAETE^MeCLAEGETE^MeCLTEGEAE^MeTLAEAEGE^MeCLTEAE (antisense eA*l[5mC]*eA*eT*l[5mC]*eA*eG*eT*l[5mC]*eT*eG*eA*lT*eA*eA*eG*l[5mC]*eT*eA) [Compound 25117, LNA variant: each non-bicyclic nucleoside is 2'-MOE, each cytosine 5-methyl cytosine] | 1.05 | 1.15 | 1.14 | 3.64 | 7.36 | 2.91 |  |  |  |  |  |  |  |
| AE^MeCSAETE^MeCSAEGETE^MeCSTEGEAE^MeTSAEAEGE^MeCSTEAE (antisense eA*k[5mC]*eA*eT*k[5mC]*eA*eG*eT*k[5mC]*eT*eG*eA*kT*eA*eA*eG*k[5mC]*eT*eA; further chemistry not given here) [Compound 25116, 25070 variant: each non-bicyclic nucleoside is 2'-MOE, each cytosine 5-methyl cytosine] | 1.06 | 0.98 | 1.06 | 2.47 | 5.64 | 1.98 |  |  |  |  |  |  |  |
| AE^MeCSAT^MeCSAGT^MeCSTGATSAAG^MeCSTAE (antisense ACATCAGTCTGATAAGCTA; modified nucleosides coded in name, code key not given here) [Compound 25922, 25070 variant: each cytosine is a 5-methyl cytosine] | 1.02 | 1.10 | 1.34 | 8.81 | 11.60 | 11.46 | demonstrated inhibition of miR-21 in a dose-dependent manner |  |  |  |  |  |  |
| AE^MeCSAT^MeCSAGT^MeCSTGATSAAG^MeCSTAS (antisense eA*k[5mC]*dA*dT*k[5mC]*dA*dG*dT*k[5mC]*dT*dG*dA*kT*dA*dA*dG*k[5mC]*dT*kA) [Compound 25924, 25070 variant: 3'-terminal cEt nucleoside and each cytosine is a 5-methyl cytosine] | 1.10 | 1.25 | 1.37 | 7.80 | 13.01 | 8.99 | demonstrated inhibition of miR-21 in a dose-dependent manner |  |  |  |  |  |  |
| AeTe^MeCeASGSTe^MeCeTeGSASTeAeASGS^MeCeTeAe [Compound 25077] |  |  |  |  |  |  |  | 45 | 33 | 42 | 40 | 34 | 33 |
| AeTe^MeCeAeGeTe^MeCeTeGSAsTeASASGe^MeCeUSAS [Compound 25731] |  |  |  |  |  |  |  | 32 | 39 | 38 | 59 | 34 | 45 |
